Reference: PMC11891579, “Fluorescent PyrAte-(S)-citalopram conjugates enable imaging of the serotonin transporter in living tissue” (Chemical Science, 2025)

How the values were obtained:
Assay type in all cases: cell-based
[1] = target: T1, hNET (Homo sapiens, UniProt P23975); assay: radioligand uptake inhibition assay ([3H]MPP+); conditions: for IC50: HEK293 stably expressing hNET, 20 nM [3H]MPP+, mean and SD, N = 3-6, read-out: IC50, uptake inhibition at NET (hNET); for Hill coefficient nH at NET: uptake inhibition curve
T1 construct: expressed in transfected cells
T1 sequence (P23975 whole entry): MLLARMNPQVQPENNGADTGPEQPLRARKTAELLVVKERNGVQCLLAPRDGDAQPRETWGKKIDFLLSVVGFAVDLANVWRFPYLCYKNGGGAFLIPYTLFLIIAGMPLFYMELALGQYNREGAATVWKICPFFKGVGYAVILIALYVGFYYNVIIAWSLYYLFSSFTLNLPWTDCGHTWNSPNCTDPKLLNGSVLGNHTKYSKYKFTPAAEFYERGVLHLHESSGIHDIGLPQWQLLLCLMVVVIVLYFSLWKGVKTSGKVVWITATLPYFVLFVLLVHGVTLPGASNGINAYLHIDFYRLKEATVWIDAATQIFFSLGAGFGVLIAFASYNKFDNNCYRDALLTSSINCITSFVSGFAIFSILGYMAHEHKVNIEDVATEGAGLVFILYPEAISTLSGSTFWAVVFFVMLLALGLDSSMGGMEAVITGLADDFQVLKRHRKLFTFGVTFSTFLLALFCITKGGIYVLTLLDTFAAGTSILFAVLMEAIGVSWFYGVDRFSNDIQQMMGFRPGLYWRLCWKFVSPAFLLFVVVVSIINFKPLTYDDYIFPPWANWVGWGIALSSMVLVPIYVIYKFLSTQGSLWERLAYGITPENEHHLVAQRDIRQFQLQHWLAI
Protocol: (§1) 1. Biological characterization
(§2) 1.1. Experimental methods
(§3) Buffer and solution compositions (in mM) are as follows:
(§4) Krebs-HEPES buffer (KHB): 120 NaCl, 3 KCl, 2 CaCl2, 2 MgCl2, 20 glucose, 10 HEPES NaOH, pH = 7.3 – 7.4. […]
(§5) 10 mM glucose, 1.25 mM NaH2PO4, pH = 7.4 (oxygenated with 95% O2, 5% CO2).
(§6) Human embryonic kidney 293 cells (HEK293) stably expressing the mCherry-tagged, YFP-tagged, and GFP-tagged human isoforms of SERT (mCherry-SERT, YhSERT, GhSERT), DAT (YhDAT), NET (hNET), and OCT3 (YhOCT3) were cultured in Dulbecco's modified Eagle's medium (DMEM) with high glucose (4.5 g/L) and l-glutamine (584 mg/L), supplemented with 10% fetal calf serum (FCS), 100 units/mL penicillin and 100 µg/mL streptomycin. The cells were cultured in a humidified atmosphere (37 °C, 5% CO2). Geneticin (50 µg/mL), Blasticidin (6 µg/mL), and Zeocin® (150 µg/mL) were added to maintain the selection pressure for the stable cell lines. Cells were typically seeded 24 hours prior to the experiments.
(§7) For uptake inhibition experiments, cells were seeded at 3.6 x 10^4 cells/0.2 mL into 96-well plates coated […]
(§8) with poly-d-lysine (PDL). […]
(§9) For uptake inhibition experiments, the cell medium was aspirated and the cells were washed once with 0.2 mL/well KHB at room temperature. The cells were pre-incubated with increasing concentrations of the substance of interest, diluted in KHB (0.05 mL/well). The pre-incubation solution was replaced with 0.05 mL/well KHB solution still containing the substance of interest and additionally the tritiated substrate (100 nM [3H]DA for YhDAT; 100 nM [3H]5HT for YhSERT; 20 nM and 50 nM [3H]MPP+ for hNET and YhOCT3), after 6 minutes (YhSERT), 5 minutes (YhDAT, hNET), or 10 minutes (YhOCT3). Substrate uptake was stopped after one minute (for [3H]DA and [3H]5HT), three minutes, or […]
(§10) ten minutes (for [3H]MPP+), by exchange of the substrate-containing buffer with 0.2 mL ice-cold KHB.
(§11) The KHB was aspirated immediately. Cells were lysed and prepared for [3H] content analysis by adding 0.2 mL Ultima Gold™ XR liquid scintillation cocktail. Measurements were performed in a 1450 MicroBeta microplate liquid scintillation counter. Non-specific uptake was determined in the presence of 30 µM paroxetine (for YhSERT), 50 µM GBR12909 (for YhDAT and hNET), or 100 µM decynium-22 (for YhOCT3). […]

[2] = target: T2, YhOCT3 (Homo sapiens, UniProt O75751); assay: radioligand uptake inhibition assay ([3H]MPP+); conditions: for IC50: HEK293 stably expressing YhOCT3, 50 nM [3H]MPP+, mean and SD, N = 3-6, read-out: IC50, uptake inhibition at OCT3 (YhOCT3); for Hill coefficient nH at OCT3: uptake inhibition curve
T2 construct: expressed in transfected cells
T2 sequence (O75751 1-556): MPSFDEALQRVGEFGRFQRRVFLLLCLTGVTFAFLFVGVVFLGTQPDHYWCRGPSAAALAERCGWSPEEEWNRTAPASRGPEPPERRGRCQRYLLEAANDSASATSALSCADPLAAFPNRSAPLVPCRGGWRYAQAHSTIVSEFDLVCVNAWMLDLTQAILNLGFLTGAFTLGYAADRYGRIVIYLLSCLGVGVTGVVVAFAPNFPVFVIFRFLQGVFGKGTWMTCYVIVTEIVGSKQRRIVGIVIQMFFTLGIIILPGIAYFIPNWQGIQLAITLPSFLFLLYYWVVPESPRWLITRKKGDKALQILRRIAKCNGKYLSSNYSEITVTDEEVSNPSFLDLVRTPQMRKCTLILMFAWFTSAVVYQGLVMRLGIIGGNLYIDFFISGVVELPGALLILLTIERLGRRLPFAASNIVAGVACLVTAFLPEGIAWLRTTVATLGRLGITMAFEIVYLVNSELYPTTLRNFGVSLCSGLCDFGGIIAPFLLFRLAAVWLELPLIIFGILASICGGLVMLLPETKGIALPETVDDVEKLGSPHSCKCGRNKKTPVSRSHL
Protocol: as §1, §2, §3, §4, §5, §6, §7, §8, §9
The KHB was aspirated immediately. […] Non-specific uptake was determined in the presence of 30 µM paroxetine (for YhSERT), 50 µM GBR12909 (for YhDAT and hNET), or 100 µM decynium-22 (for YhOCT3). […]
[3H]-imipramine, and increasing concentrations of test compound, for 60 min at 20 – 22 °C. […] The amount of radioactivity in the filters was measured using a Tri-Carb 2800TR liquid scintillation analyzer (PerkinElmer). The Ki was calculated from the measured IC50 using the Cheng-Prusoff equation.
Prior to imaging, cell culture medium was replaced with pre-warmed KHB. […] PyrAtes were excited using a 405 nm laser, and its fluorescent signals collected using 525/50 nm emission filters; mCherry was excited using a 561 nm laser, and fluorescence was collected using 595/50 nm emission filters. […]
5HT-mediated currents were measured at room temperature (20-25°C) using whole-cell patch clamp in HEK293 cells stably expressing SERT. […]

[3] = target: T3, YhSERT (Homo sapiens, UniProt P31645); assay: radioligand uptake inhibition assay ([3H]5HT); conditions: for IC50: HEK293 stably expressing YhSERT, 100 nM [3H]5HT, mean and SD, N = 3-6, read-out: IC50, uptake inhibition at SERT (YhSERT); for selectivity to SERT vs. DAT / selectivity to SERT vs. NET / selectivity to SERT vs. OCT3: from uptake inhibition IC50; for decrease of SERT affinity (IC50) compared to (S)-citalopram: uptake inhibition IC50; for Hill coefficient nH at SERT: uptake inhibition curve
T3 construct: expressed in transfected cells
T3 sequence (P31645 whole entry): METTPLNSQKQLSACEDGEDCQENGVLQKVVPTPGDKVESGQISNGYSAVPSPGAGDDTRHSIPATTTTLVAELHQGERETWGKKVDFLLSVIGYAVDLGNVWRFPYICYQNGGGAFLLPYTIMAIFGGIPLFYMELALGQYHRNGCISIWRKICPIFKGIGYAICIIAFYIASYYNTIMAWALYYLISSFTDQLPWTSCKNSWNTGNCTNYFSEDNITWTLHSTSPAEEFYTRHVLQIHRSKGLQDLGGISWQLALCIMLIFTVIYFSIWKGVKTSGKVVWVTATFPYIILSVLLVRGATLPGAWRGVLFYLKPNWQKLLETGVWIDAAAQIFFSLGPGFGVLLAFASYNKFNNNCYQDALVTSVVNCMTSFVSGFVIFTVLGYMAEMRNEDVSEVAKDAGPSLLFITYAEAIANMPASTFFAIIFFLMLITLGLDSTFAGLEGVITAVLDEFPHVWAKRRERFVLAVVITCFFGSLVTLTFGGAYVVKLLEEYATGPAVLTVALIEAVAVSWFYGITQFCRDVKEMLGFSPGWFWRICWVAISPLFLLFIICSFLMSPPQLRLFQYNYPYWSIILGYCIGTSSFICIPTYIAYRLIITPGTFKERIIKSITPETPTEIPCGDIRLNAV
Protocol: as §1, §2, §3, §4, §5, §6, §7, §8, §9, §10, §11

CCN(CC)c1ccc(-c2cc[n+]3c(-c4ccccc4)c(N4CCCC4)n(CCCC(=O)NCc4ccc5c(c4)CO[C@@]5(CCCN(C)C)c4ccc(F)cc4)c3c2)cc1 [PYR-C3-CIT, PyrAte-C3-(S)-citalopram]
IC50 [1]: 10900 nM | Hill coefficient nH at NET [1]: −1.0 | IC50 [2]: 3320 nM | Hill coefficient nH at OCT3 [2]: −2.1 | IC50 [3]: 400 nM | selectivity to SERT vs. DAT [3]: around 10 fold | selectivity to SERT vs. NET [3]: 27 fold | selectivity to SERT vs. OCT3 [3]: 8.2 fold | decrease of SERT affinity (IC50) compared to (S)-citalopram [3]: 10 fold | Hill coefficient nH at SERT [3]: −3.0

CCN(CC)c1ccc(-c2cc[n+]3c(-c4ccccc4)c(N4CCCC4)n(CCCCCCC(=O)NCc4ccc5c(c4)CO[C@@]5(CCCN(C)C)c4ccc(F)cc4)c3c2)cc1 [PYR-C6-CIT, PyrAte-C6-(S)-citalopram]
IC50 [1]: 12600 nM | Hill coefficient nH at NET [1]: −1.3 | IC50 [2]: 2100 nM | Hill coefficient nH at OCT3 [2]: −2.3 | IC50 [3]: 830 nM | selectivity to SERT vs. DAT [3]: 2.5 fold | selectivity to SERT vs. NET [3]: 15 fold | selectivity to SERT vs. OCT3 [3]: 2.5 fold | decrease of SERT affinity (IC50) compared to (S)-citalopram [3]: around 20 fold | Hill coefficient nH at SERT [3]: −3.1
